Values quoted from earlier work in patent US20040097599A1, “Antibacterial and antifungal compositions based on branched C-11 alcohols” (priority 2001, published 2004).
Converted amounts (≈) assume the structure as drawn.

System: Streptococcus mutans
Settings: towards Streptococcus mutans; J. Agric. Food Chem. 1993, 41, 2447-2450

Row | MIC (Minimum Inhibitory Concentration) [µg/mL] | SMILES
1 | 6.25 (≈ 33.5 µM) | CCCCCCCCCCCCO [1-dodecanol]
2 | 6.25 (≈ 31.2 µM) | CCCCCCCCCCCCCO [1-tridecanol]
